Experiments:
[1] = target: T1, BTK (Homo sapiens, UniProt Q06187); experiment: BTK kinase electrophoretic mobility shift assay (MSA); format: biochemical; settings: 50 μM ATP, 0.5 nM BTK enzyme (Nanosyn-293HEK, WT), 3 hours at 25° C.; all examples except 50, 51, 62 and 63; read-out: BTK IC50
T1 construct: purchased Nanosyn, Santa Clara, Calif; host or cells: 293HEK
Description: Kinase activity, unless otherwise indicated, was measured in vitro using an electrophoretic mobility shift assay (MSA). The phosphorylation of a peptide substrate by BTK and other kinases was measured. The kinase reactions were assembled in a total volume of 25 μL per well in 384 well plates. The following was added to each well: compound buffer (or control); enzyme buffer; and substrate buffer, as further described below.
The terminated reactions were analyzed using a 12 channel LABCHIP® 3000 microfluidic detection instrument (available from Caliper Life Sciences, Waltham, Mass.). […] Change in the relative fluorescence intensity of the substrate and product peaks was the parameter measured, reflecting enzyme activity. In the presence of an inhibitor, the ratio between product and substrate was altered. The signal of the product decreased, while the signal of the substrate increased. Capillary electrophoregrams (RDA acquisition files) were analyzed using HTS Well Analyzer software (available from Caliper Life Sciences, Waltham, Mass.).
Activity in each sample was determined as the product to sum ratio (PSR): P/(S+P), where P was the peak height of the product peptide and S was the peak height of the substrate peptide. For each compound, enzyme activity was measured at various concentrations (12 concentrations of compound spaced by 3× dilution intervals). Negative control samples (00 inhibition in the absence of inhibitor) and positive control samples (10000 inhibition, in the presence of 20 mM EDTA) were assembled in replicates of four and were used to calculate 00 inhibition values for each inhibitor at each concentration. Percent inhibition (Pinh) was determined using following equation: Pinh=(PSR0%−PSRinh)/(PSR0%−PSR100%)*100, where PSRinh was the product sum ratio in the presence of inhibitor, PSR0% was the average product sum ratio in the absence of inhibitor and PSR100% was the average product sum ratio in 100%−inhibition control samples.
The IC50 values of inhibitors were determined by 4 parameter sigmoidal dose response model fitting of the inhibition curves (Pinh versus inhibitor concentration) using XLfit® 4 software (available from IDBS, Boston, Mass.).

[2] = target: T2, Phosphorylation of Y223 of BTK (Homo sapiens, UniProt Q06187); experiment: Whole blood compound screening, phosphorylation of Y223 site of BTK (MSD assay); format: cell-based; settings: healthy human whole blood, 2 hours at 37° C., 3 separate donors; read-out: WB BTK-pY223 EC50
T2 construct: host or cells: healthy human whole blood, 3 donors
Description: Healthy human whole blood (WB) was collected from […]™ Technologies or […]® in sodium heparinized tubes. Whole blood was stored at ambient temperature to avoid coagulation. Each compound was tested in 3 separate donors. Compound stock solutions (10 mM) were used to generate dose titration (8 concentrations, starting concentration 10 μM, 1:4 dilution) in appropriate volume of dimethyl sulfoxide (0.2%). Whole blood was incubated with compounds in 96-well plates for 2 hours in tissue culture incubators at 37° C. under a 5% CO2 atmosphere. The whole blood was lysed in equal volume of lysis buffer (Cell Signaling Technology®, Danvers, Mass.) containing complete protease inhibitor tablet, PhosSTOP™ tablet, sodium orthovanadate and sodium fluoride and phenylmethanesulfonyl fluoride solution. The lysed whole blood was then frozen at −80° C. for overnight.
Phosphorylation of Y223 of BTK was measured using an MSD assay (Meso Scale Diagnostics, LLC, Rockville, Md.). The thawed lysed whole blood was incubated with the capturing antibody rabbit anti-human BTK (D3H5) (Cell Signaling Technology, Danvers, Mass.) at 4° C. overnight. After washing out the unbound samples, the detection antibody biotinylated rabbit anti-pY223-BTK(D9T6H) (Cell Signaling Technology®, Danvers, Mass.) was added to the plates. After washing out the unbound antibodies, SULFO-TAG Streptavidin (Meso Scale Diagnostics, LLC, Rockville, Md.) was used for detection on Meso Sector S600 (Meso Scale Diagnostics, LLC, Rockville, Md.).
The EC50 values were determined using software from Dotmatics. The activity of exemplary compounds is illustrated below.

T2 sequence (Q06187 whole entry): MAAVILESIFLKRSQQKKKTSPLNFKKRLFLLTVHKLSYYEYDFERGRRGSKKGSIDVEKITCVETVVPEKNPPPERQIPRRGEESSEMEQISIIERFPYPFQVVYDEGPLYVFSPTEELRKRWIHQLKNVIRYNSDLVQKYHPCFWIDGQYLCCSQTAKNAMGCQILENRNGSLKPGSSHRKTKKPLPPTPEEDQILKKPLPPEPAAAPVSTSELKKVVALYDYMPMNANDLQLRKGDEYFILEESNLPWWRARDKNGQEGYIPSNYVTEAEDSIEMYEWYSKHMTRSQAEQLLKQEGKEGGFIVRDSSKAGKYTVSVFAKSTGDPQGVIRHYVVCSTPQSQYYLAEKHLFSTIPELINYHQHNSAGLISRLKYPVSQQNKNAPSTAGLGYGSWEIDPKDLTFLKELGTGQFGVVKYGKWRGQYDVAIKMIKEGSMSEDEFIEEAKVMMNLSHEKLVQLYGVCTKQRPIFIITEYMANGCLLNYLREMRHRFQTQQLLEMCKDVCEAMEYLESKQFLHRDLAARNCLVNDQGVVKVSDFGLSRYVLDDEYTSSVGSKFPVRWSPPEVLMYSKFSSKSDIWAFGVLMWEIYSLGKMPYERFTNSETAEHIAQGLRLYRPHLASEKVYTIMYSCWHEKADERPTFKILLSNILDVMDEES
T1 sequence (Q06187 whole entry): as above

SMILES: C=CC(=O)N1CC(N2CCNc3c2nn(-c2ccc(Oc4ccc(F)cc4F)cc2)c3C(N)=O)C1 [Example 81, 2-[4-(2,4-difluorophenoxy)phenyl]-7-[1-(prop-2-enoyl)azetidin-3-yl]-4,5,6,7-tetrahydro-2H-pyrazolo[3,4-b]pyrazine-3-carboxamide]
- IC50 [1]: 0.00524 µM
- EC50 [2]: 0.0751 µM

SMILES: C=CC(=O)N1CCN([C@@H]2CCNc3c2nn(-c2ccc(Oc4cccc(F)c4F)cc2)c3C(N)=O)CC1 [Example 77, (7R)-2-[4-(2,3-difluorophenoxy)phenyl]-7-[4-(prop-2-enoyl)piperazin-1-yl]-4,5,6,7-tetrahydro-2H-pyrazolo[4,3-b]pyridine-3-carboxamide]
- IC50 [1]: 0.000533 µM
- EC50 [2]: 0.0315 µM

SMILES: C=CC(=O)N1CCN([C@@H]2CCNc3c2nn(-c2ccc(Oc4ccccc4OC(F)(F)F)cc2)c3C(N)=O)CC1 [Example 90, (7R)-7-[4-(prop-2-enoyl)piperazin-1-yl]-2-{4-[2-(trifluoromethoxy)phenoxy]phenyl}-4,5,6,7-tetrahydro-2H-pyrazolo[4,3-b]pyridine-3-carboxamide]
- IC50 [1]: 0.00129 µM
- EC50 [2]: 0.933 µM

SMILES: C=CC(=O)N1C2CC1CN([C@@H]1CCNc3c1nn(-c1ccc(Oc4ccccc4)cc1)c3C(N)=O)C2 [Example 73, (7R)-2-(4-phenoxyphenyl)-7-[6-(prop-2-enoyl)-3,6-diazabicyclo[3.1.1]heptan-3-yl]-4,5,6,7-tetrahydro-2H-pyrazolo[4,3-b]pyridine-3-carboxamide]
- IC50 [1]: 0.0157 µM
- EC50 [2]: 0.255 µM

SMILES: C=CC(=O)N1CCC(C2CCNc3c2nn(-c2ccc(Oc4ccccc4)cc2)c3C(N)=O)CC1 (racemic) [Example 1, Rac-2-(4-phenoxyphenyl)-7-[1-(prop-2-enoyl)piperidin-4-yl]-4,5,6,7-tetrahydro-2H-pyrazolo[4,3-b]pyridine-3-carboxamide]
- IC50 [1]: 0.000426 µM
- EC50 [2]: 0.0422 µM

SMILES: C=CC(=O)N1CCN([C@@H]2CCNc3c2nn(-c2ccc(Oc4ccc(F)cc4)cc2)c3C(N)=O)CC1 [Example 71, (7R)-2-[4-(4-fluorophenoxy)phenyl]-7-[4-(prop-2-enoyl)piperazin-1-yl]-4,5,6,7-tetrahydro-2H-pyrazolo[4,3-b]pyridine-3-carboxamide]
- IC50 [1]: 0.0228 µM
- EC50 [2]: 0.279 µM

SMILES: C=CC(=O)N1CCN([C@@H]2CCNc3c2nn(-c2ccc(Oc4cc(F)ccc4F)cc2)c3C(N)=O)CC1 [Example 74, (7R)-2-[4-(2,5-difluorophenoxy)phenyl]-7-[4-(prop-2-enoyl)piperazin-1-yl]-4,5,6,7-tetrahydro-2H-pyrazolo[4,3-b]pyridine-3-carboxamide]
- IC50 [1]: 0.00151 µM
- EC50 [2]: 0.056 µM

SMILES: C=CC(=O)N1CCN([C@H]2CCNc3c2nn(-c2ccc(Oc4ccccc4)cc2)c3C(N)=O)CC12CC2 [Example 83, (7S)-2-(4-phenoxyphenyl)-7-[4-(prop-2-enoyl)-4,7-diazaspiro[2.5]octan-7-yl]-4,5,6,7-tetrahydro-2H-pyrazolo[4,3-b]pyridine-3-carboxamide]
- IC50 [1]: 0.0666 µM
- EC50 [2]: 1.73 µM

SMILES: C=CC(=O)N1C2CC1CN([C@H]1CCNc3c1nn(-c1ccc(Oc4ccccc4)cc1)c3C(N)=O)C2 [Example 72, (7S)-2-(4-phenoxyphenyl)-7-[6-(prop-2-enoyl)-3,6-diazabicyclo[3.1.1]heptan-3-yl]-4,5,6,7-tetrahydro-2H-pyrazolo[4,3-b]pyridine-3-carboxamide]
- IC50 [1]: 0.00784 µM
- EC50 [2]: 0.0217 µM

SMILES: C=CC(=O)N1CCC(C2CCNc3c2nn(-c2ccc(Oc4cccc(F)c4)cc2)c3C(N)=O)CC1 (stereo not shown) [Example 12, 2-[4-(3-fluorophenoxy)phenyl]-7-[1-(prop-2-enoyl)piperidin-4-yl]-4,5,6,7-tetrahydro-2H-pyrazolo[4,3-b]pyridine-3-carboxamide]
- IC50 [1]: 0.000495 µM
- EC50 [2]: 0.0329 µM

SMILES: C=CC(=O)N1CCN([C@@H]2CCNc3c2nn(-c2ccc(Oc4ccc(C)cc4)cc2)c3C(N)=O)CC1 [Example 92, (7R)-2-[4-(4-methylphenoxy)phenyl]-7-[4-(prop-2-enoyl)piperazin-1-yl]-4,5,6,7-tetrahydro-2H-pyrazolo[4,3-b]pyridine-3-carboxamide]
- IC50 [1]: 0.00242 µM
- EC50 [2]: 0.608 µM

SMILES: C=CC(=O)N1CCN([C@@H]2CCNc3c2nn(-c2ccc(Oc4ccccc4)cc2)c3C(N)=O)CC12CC2 [Example 82, (7R)-2-(4-phenoxyphenyl)-7-[4-(prop-2-enoyl)-4,7-diazaspiro[2.5]octan-7-yl]-4,5,6,7-tetrahydro-2H-pyrazolo[4,3-b]pyridine-3-carboxamide]
- IC50 [1]: 0.000515 µM
- EC50 [2]: 0.0441 µM

SMILES: C=CC(=O)N1CCC(C2CCNc3c2nn(-c2ccc(Oc4cccc(OC)c4)cc2)c3C(N)=O)CC1 (stereo not shown) [Example 15, 2-[4-(3-methoxyphenoxy)phenyl]-7-[1-(prop-2-enoyl)piperidin-4-yl]-4,5,6,7-tetrahydro-2H-pyrazolo[4,3-b]pyridine-3-carboxamide]
- IC50 [1]: 0.000684 µM
- EC50 [2]: 0.0556 µM

SMILES: C=CC(=O)N1[C@@H]2CC[C@H]1CN(C1CCNc3c1nn(-c1ccc(Oc4ccccc4)cc1)c3C(N)=O)C2 (stereo partly drawn) [Example 35, 2-(4-phenoxyphenyl)-7-[(1R,5S)-8-(prop-2-enoyl)-3,8-diazabicyclo[3.2.1]octan-3-yl]-4,5,6,7-tetrahydro-2H-pyrazolo[4,3-b]pyridine-3-carboxamide]
- IC50 [1]: 0.000884 µM
- EC50 [2]: 0.128 µM

SMILES: C=CC(=O)N1CCN([C@@H]2CCNc3c2nn(-c2ccc(Oc4cccc(C5CC5)c4)cc2)c3C(N)=O)CC1 [Example 78, (7R)-2-[4-(3-cyclopropylphenoxy)phenyl]-7-[4-(prop-2-enoyl)piperazin-1-yl]-4,5,6,7-tetrahydro-2H-pyrazolo[4,3-b]pyridine-3-carboxamide]
- IC50 [1]: 0.000671 µM
- EC50 [2]: 0.0579 µM

SMILES: C=CC(=O)N1CCN([C@@H]2CCNc3c2nn(-c2ccc(Oc4ccccc4C#N)cc2)c3C(N)=O)CC1 [Example 69, (7R)-2-[4-(2-cyanophenoxy)phenyl]-7-[4-(prop-2-enoyl)piperazin-1-yl]-4,5,6,7-tetrahydro-2H-pyrazolo[4,3-b]pyridine-3-carboxamide]
- IC50 [1]: 0.00218 µM
- EC50 [2]: 0.0292 µM

SMILES: C=CC(=O)N1CCN([C@@H]2CCNc3c2nn(-c2ccc(Oc4cccc(OC)c4)cc2)c3C(N)=O)CC1 [Example 91, (7R)-2-[4-(3-methoxyphenoxy)phenyl]-7-[4-(prop-2-enoyl)piperazin-1-yl]-4,5,6,7-tetrahydro-2H-pyrazolo[4,3-b]pyridine-3-carboxamide]
- IC50 [1]: 0.00166 µM
- EC50 [2]: 0.399 µM

SMILES: C=CC(=O)N1CCN([C@@H]2CCNc3c2nn(-c2ccc(Oc4ccc(OC)cc4)cc2)c3C(N)=O)CC1 [Example 87, (7R)-2-[4-(4-methoxyphenoxy)phenyl]-7-[4-(prop-2-enoyl)piperazin-1-yl]-4,5,6,7-tetrahydro-2H-pyrazolo[4,3-b]pyridine-3-carboxamide]
- IC50 [1]: 0.00332 µM
- EC50 [2]: 0.162 µM

SMILES: C=CC(=O)N1CCN([C@@H]2CCNc3c2nn(-c2ccc(Oc4cccc(F)c4)cc2)c3C(N)=O)CC1 [Example 67, (7R)-2-[4-(3-fluorophenoxy)phenyl]-7-[4-(prop-2-enoyl)piperazin-1-yl]-4,5,6,7-tetrahydro-2H-pyrazolo[4,3-b]pyridine-3-carboxamide]
- IC50 [1]: 0.000737 µM
- EC50 [2]: 0.0188 µM

SMILES: C=CC(=O)N1C[C@@H]2CN(C3CCNc4c3nn(-c3ccc(Oc5ccccc5)cc3)c4C(N)=O)C[C@@H]2C1 (mixture of isomers) [Example 66, 2-(4-phenoxyphenyl)-7-[rac-(3aR,6aS)-5-(prop-2-enoyl)hexahydropyrrolo[3,4-c]pyrrol-2(1H)-yl]-4,5,6,7-tetrahydro-2H-pyrazolo[4,3-b]pyridine-3-carboxamide]
- IC50 [1]: 0.0657 µM
- EC50 [2]: 1.82 µM

From patent US20220213092A1, “BICYCLIC PYRAZOLE BRUTON'S TYROSINE KINASE INHIBITORS” (AbbVie Inc., priority 2020, published 2022)
